Data: patent US11384083B2, “Substituted spiro[cyclopropane-1,5′-pyrrolo[2,3-d]pyrimidin]-6′(7′h)-ones as CDK2 inhibitors” (Incyte Corporation, priority 2019, dated 2022)

These molecules were tested against CDK2/Cyclin E1 (Homo sapiens (Human), UniProt P24941) (assay: CDK2/Cyclin E1 HTRF enzyme activity assay). Conditions: 1 mM ATP.
Assay type: biochemical
Experimental: Example A. CDK2/Cyclin E1 HTRF Enzyme Activity Assay
CDK2/Cyclin E1 enzyme activity assays utilized full-length human CDK2 co-expressed as N-terminal GST-tagged protein with FLAG-Cyclin E1 in a baculovirus expression system (Carna Product Number 04-165). Assays were conducted in white 384-well polystyrene plates in a final reaction volume of 8 μL. CDK2/Cyclin E1 (0.25 nM) was incubated with compounds (40 nL serially diluted in DMSO) in the presence of ATP (50 μM or 1 mM) and 50 nM ULight™-labeled eIF4E-binding protein 1 (THR37/46) peptide (PerkinElmer) in assay buffer (containing 50 mM HEPES pH 7.5, 1 mM EGTA, 10 mM MgCl2, 2 mM DTT, 0.05 mg/mL BSA, and 0.01% Tween 20) for 60 minutes at room temperature. The reactions were stopped by the addition of EDTA and Europium-labeled anti-phospho-4E-BP1 antibody (PerkinElmer), for a final concentration of 15 mM and 1.5 nM, respectively. HTRF signals were read after 1 hour at room temperature on a PHERAstar FS plate reader (BMG Labtech). Data were analyzed with IDBS XLFit and GraphPad Prism 5.0 software using a three or four parameter dose response curve to determine IC50 for each compound.

IC50, ≤ 0.05 µM:
CCC(C(F)F)N1C(=O)C2(CC2)c2cnc(NC3CCN(S(C)(=O)=O)CC3)nc21 (racemic) [Example 10, 7′-(1,1-difluorobutan-2-yl)-2′-((1-(methylsulfonyl)piperidin-4-yl)amino)spiro[cyclopropane-1,5′-pyrrolo[2,3-d]pyrimidin]-6′(7′H)-one]
C[C@@]1(O)CCC[C@H]1N1C(=O)C2(CC2)c2cnc(NC3CCN(S(=O)(=O)c4ncc[nH]4)CC3)nc21 (relative stereo) [Example 17, 2′-((1-((1H-imidazol-2-yl)sulfonyl)piperidin-4-yl)amino)-7′-((trans)-2-hydroxy-2-methylcyclopentyl)spiro[cyclopropane-1,5′-pyrrolo[2,3-d]pyrimidin]-6′(7′H)-one]
O=C1N(C2CCCC2)c2nc(NC3CCN(S(=O)(=O)C4CC4)CC3)ncc2C12CC2 [Example 3, 7′-Cyclopentyl-2′-((1-(cyclopropylsulfonyl)piperidin-4-yl)amino)spiro[cyclopropane-1,5′-pyrrolo[2,3-d]pyrimidin]-6′(7′H)-one]
O=C1N(C2CCCC2)c2nc(NC3CCN(S(=O)(=O)c4cccnc4)CC3)ncc2C12CC2 [Example 5, 7′-Cyclopentyl-2′-((1-(pyridin-3-ylsulfonyl)piperidin-4-yl)amino)spiro[cyclopropane-1,5′-pyrrolo[2,3-d]pyrimidin]-6′(7′H)-one]
Cn1cc(S(=O)(=O)N2CCC(Nc3ncc4c(n3)N(C3CCCC3)C(=O)C43CC3)CC2)cn1 [Example 7, 7′-Cyclopentyl-2′-((1-((1-methyl-1H-pyrazol-4-yl)sulfonyl)piperidin-4-yl)amino)spiro[cyclopropane-1,5′-pyrrolo[2,3-d]pyrimidin]-6′(7′H)-one]
CC1CCCC1N1C(=O)C2(CC2)c2cnc(NC3CCN(S(C)(=O)=O)CC3)nc21 (stereo not shown) [Example 8, 7′-(2-Methylcyclopentyl)-2′-((1-(methylsulfonyl)piperidin-4-yl)amino)spiro[cyclopropane-1,5′-pyrrolo[2,3-d]pyrimidin]-6′(7′H)-one]
Cn1cc(S(=O)(=O)N2CCC(Nc3ncc4c(n3)N([C@@H]3CCC[C@@H](O)C3)C(=O)C43CC3)CC2)cn1 [Example 12, 7′-((1R,3R)-3-hydroxycyclohexyl)-2′-((1-((1-methyl-1H-pyrazol-4-yl)sulfonyl)piperidin-4-yl)amino)spiro[cyclopropane-1,5′-pyrrolo[2,3-d]pyrimidin]-6′(7′H)-one]
O=C1N([C@@H]2CCC[C@@H](O)C2)c2nc(NC3CCN(S(=O)(=O)c4cccc(N5CCC5)n4)CC3)ncc2C12CC2 [Example 13, 2′-((1-((6-(azetidin-1-yl)pyridin-2-yl)sulfonyl)piperidin-4-yl)amino)-7′-((1R,3R)-3-hydroxycyclohexyl)spiro[cyclopropane-1,5′-pyrrolo[2,3-d]pyrimidin]-6′(7′H)-one]
C[C@@H](C1CC1)N1C(=O)C2(CC2)c2cnc(NC3CCN(S(=O)(=O)c4ncc[nH]4)CC3)nc21 [Example 14, (S)-2′-((1-((1H-imidazol-2-yl)sulfonyl)piperidin-4-yl)amino)-7′-(1-cyclopropylethyl)spiro[cyclopropane-1,5′-pyrrolo[2,3-d]pyrimidin]-6′(7′H)-one]
C[C@@H](C1CC1)N1C(=O)C2(CC2)c2cnc(NC3CCN(S(=O)(=O)c4ccc(=O)[nH]c4)CC3)nc21 [Example 15, (S)-7′-(1-cyclopropylethyl)-2′-((1-((6-oxo-1,6-dihydropyridin-3-yl)sulfonyl)piperidin-4-yl)amino)spiro[cyclopropane-1,5′-pyrrolo[2,3-d]pyrimidin]-6′(7′H)-one]
CCN1CC(n2cc(S(=O)(=O)N3CCC(Nc4ncc5c(n4)N([C@@H](C)C4CC4)C(=O)C54CC4)CC3)cn2)C1 [Example 16, (S)-7′-(1-cyclopropylethyl)-2′-((1-((1-(1-ethylazetidin-3-yl)-1H-pyrazol-4-yl)sulfonyl)piperidin-4-yl)amino)spiro[cyclopropane-1,5′-pyrrolo[2,3-d]pyrimidin]-6′(7′H)-one]
O=C1N(c2cc3c(cc2Cl)CNCC3)c2nc(NC3CCN(S(=O)(=O)c4ncc[nH]4)CC3)ncc2C12CC2 [Example 18, 2′-((1-((1H-imidazol-2-yl)sulfonyl)piperidin-4-yl)amino)-7′-(7-chloro-1,2,3,4-tetrahydroisoquinolin-6-yl)spiro[cyclopropane-1,5′-pyrrolo[2,3-d]pyrimidin]-6′(7′H)-one]
CCn1cnc(S(=O)(=O)N2CCC(Nc3ncc4c(n3)N(c3cc(F)ccc3Cl)C(=O)C43CC3)CC2)c1 [Example 19, 7′-(2-chloro-5-fluorophenyl)-2′-((1-((1-ethyl-1H-imidazol-4-yl)sulfonyl)piperidin-4-yl)amino)spiro[cyclopropane-1,5′-pyrrolo[2,3-d]pyrimidin]-6′(7′H)-one]
